According to patent US10040781B2, “Tank-binding kinase inhibitor compounds” (Gilead Sciences, Inc., priority 2014, dated 2018):

Biological target: hJAK2 (Homo sapiens (Human), UniProt O60674)
Assay: hJAK2 LANCE TR-FRET enzymatic assay
Type: biochemical
Settings: read-out: JAK2 IC50

Sequence of hJAK2 (O60674 whole entry): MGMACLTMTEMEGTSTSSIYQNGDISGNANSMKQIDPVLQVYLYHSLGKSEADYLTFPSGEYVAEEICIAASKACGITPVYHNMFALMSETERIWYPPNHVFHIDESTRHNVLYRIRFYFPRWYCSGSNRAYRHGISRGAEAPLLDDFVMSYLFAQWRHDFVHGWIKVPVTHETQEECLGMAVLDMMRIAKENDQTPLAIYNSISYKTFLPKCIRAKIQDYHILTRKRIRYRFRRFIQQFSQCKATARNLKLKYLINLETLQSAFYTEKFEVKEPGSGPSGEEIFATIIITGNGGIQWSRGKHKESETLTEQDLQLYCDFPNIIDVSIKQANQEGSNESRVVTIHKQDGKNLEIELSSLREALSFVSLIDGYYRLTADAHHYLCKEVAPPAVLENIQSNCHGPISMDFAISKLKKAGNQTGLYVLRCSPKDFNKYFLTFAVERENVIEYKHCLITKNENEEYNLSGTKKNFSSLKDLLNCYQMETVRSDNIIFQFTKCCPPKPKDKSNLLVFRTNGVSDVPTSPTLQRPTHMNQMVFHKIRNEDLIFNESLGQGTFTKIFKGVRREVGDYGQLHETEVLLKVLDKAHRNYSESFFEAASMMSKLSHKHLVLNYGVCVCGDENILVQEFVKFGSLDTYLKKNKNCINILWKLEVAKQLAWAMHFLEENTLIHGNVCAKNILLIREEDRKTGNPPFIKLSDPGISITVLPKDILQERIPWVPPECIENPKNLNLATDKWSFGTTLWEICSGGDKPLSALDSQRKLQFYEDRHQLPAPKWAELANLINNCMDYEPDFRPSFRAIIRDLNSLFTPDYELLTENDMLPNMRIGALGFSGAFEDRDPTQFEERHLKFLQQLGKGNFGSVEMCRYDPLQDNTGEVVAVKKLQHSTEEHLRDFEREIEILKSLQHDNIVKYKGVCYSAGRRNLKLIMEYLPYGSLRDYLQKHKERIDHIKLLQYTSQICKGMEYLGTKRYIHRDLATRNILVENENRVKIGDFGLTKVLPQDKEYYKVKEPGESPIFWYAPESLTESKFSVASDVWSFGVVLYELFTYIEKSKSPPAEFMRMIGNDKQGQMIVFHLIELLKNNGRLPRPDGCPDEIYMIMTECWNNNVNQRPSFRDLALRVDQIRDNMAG

IC50 [nM] | Compound
≥ 1000 | C[C@H]1CN(C2COC2)CCN1c1ccc(Nc2ncnc(-c3ccc(O[C@H]4CCN(C(=O)[C@@H]5CCC(=O)N5)C[C@H]4F)c(C#N)c3)n2)cc1 [Example 381, 2-(((3R,4S)-3-fluoro-1-((S)-5-oxopyrrolidine-2-carbonyl)piperidin-4-yl)oxy)-5-(4-((4-((S)-2-methyl-4-(oxetan-3-yl)piperazin-1-yl)phenyl)amino)-1,3,5-triazin-2-yl)benzonitrile]
≥ 1000 | C[C@H](O)C(=O)N1CC[C@H](Oc2ccc(-c3ncnc(Nc4ccc(O[C@H]5CCN(C6COC6)C[C@H]5F)cc4)n3)cc2C#N)[C@H](F)C1 [Example 401, 2-(((3R,4S)-3-fluoro-1-((S)-2-hydroxypropanoyl)piperidin-4-yl)oxy)-5-(4-((4-(((3R,4S)-3-fluoro-1-(oxetan-3-yl)piperidin-4-yl)oxy)phenyl)amino)-1,3,5-triazin-2-yl)benzonitrile]
858 | N#Cc1cc(-c2ncnc(Nc3ccc(N4CCN(C5COC5)CC4)cc3)n2)ccc1O[C@H]1CCN(C(=O)[C@@H]2C[C@@H](O)C(=O)N2)C[C@H]1F [Example 403, 2-(((3R,4S)-3-fluoro-1-((2S,4R)-4-hydroxy-5-oxopyrrolidine-2-carbonyl)piperidin-4-yl)oxy)-5-(4-((4-(4-(oxetan-3-yl)piperazin-1-yl)phenyl)amino)-1,3,5-triazin-2-yl)benzonitrile]
≥ 1000 | N#Cc1cc(-c2ncnc(Nc3ccc(N4CCN(C5COC5)CC4)cc3)n2)ccc1O[C@H]1CCN(C(=O)[C@@H]2C[C@@H](F)C(=O)N2)C[C@H]1F [Example 405, 2-(((3R,4S)-3-fluoro-1-((2S,4R)-4-fluoro-5-oxopyrrolidine-2-carbonyl)piperidin-4-yl)oxy)-5-(4-((4-(4-(oxetan-3-yl)piperazin-1-yl)phenyl)amino)-1,3,5-triazin-2-yl)benzonitrile]
≥ 1000 | N#Cc1cc(-c2ncnc(Nc3ccc(N4CCN(C5COC5)CC4)cc3)n2)ccc1O[C@H]1CCN(C(=O)[C@@H]2C[C@H](F)C(=O)N2)C[C@H]1F [Example 406, 2-(((3R,4S)-3-fluoro-1-((2S,4S)-4-fluoro-5-oxopyrrolidine-2-carbonyl)piperidin-4-yl)oxy)-5-(4-((4-(4-(oxetan-3-yl)piperazin-1-yl)phenyl)amino)-1,3,5-triazin-2-yl)benzonitrile]
450 | N#Cc1cc(-c2ncnc(Nc3ccc(N4CCN(C5COC5)CC4)cc3)n2)ccc1O[C@H]1CCN(C(=O)[C@@H]2C[C@H](O)C(=O)N2)C[C@H]1F [Example 410, 2-(((3R,4S)-3-fluoro-1-((2S,4S)-4-hydroxy-5-oxopyrrolidine-2-carbonyl)piperidin-4-yl)oxy)-5-(4-((4-(4-(oxetan-3-yl)piperazin-1-yl)phenyl)amino)-1,3,5-triazin-2-yl)benzonitrile]
90 | Cc1n[nH]c(C(=O)N2CC[C@H](Oc3ccc(-c4ncnc(Nc5ccc(N6CCN(C7COC7)CC6)cc5)n4)cc3C#N)[C@H](F)C2)n1 [Example 451, 2-(((3R,4S)-3-fluoro-1-(3-methyl-1H-1,2,4-triazole-5-carbonyl)piperidin-4-yl)oxy)-5-(4-((4-(4-(oxetan-3-yl)piperazin-1-yl)phenyl)amino)-1,3,5-triazin-2-yl)benzonitrile]
621 | N#Cc1cc(-c2ncnc(Nc3cnn(C(F)F)c3)n2)ccc1O[C@H]1CCN(C(=O)CO)C[C@H]1F [Example 454, 5-(4-((1-(difluoromethyl)-1H-pyrazol-4-yl)amino)-1,3,5-triazin-2-yl)-2-(((3R,4S)-3-fluoro-1-(2-hydroxyacetyl)piperidin-4-yl)oxy)benzonitrile]
332 | C[C@@H](O)C(=O)N1CC[C@H](Oc2ccc(-c3ncnc(Nc4ccc(N5CCN(C6COC6)CC5)cc4)n3)cc2C#N)[C@H](F)C1 [Example 464, 2-(((3R,4S)-3-fluoro-1-((R)-2-hydroxypropanoyl)piperidin-4-yl)oxy)-5-(4-((4-(4-(oxetan-3-yl)piperazin-1-yl)phenyl)amino)-1,3,5-triazin-2-yl)benzonitrile]
320 | CC(=O)N1CC[C@H](Oc2ccc(-c3ncnc(Nc4ccc(S(C)(=N)=O)cc4)n3)cc2C#N)C(F)(F)C1 (some centres unmarked) [Example 481]
≥ 1000 | COc1cc(Nc2ncnc(-c3ccc(O[C@H]4CCN(C(=O)[C@H](C)O)C[C@H]4F)c(C#N)c3)n2)cnc1N1CCN(C2COC2)CC1 [Example 514, 2-(((3R,4S)-3-fluoro-1-((S)-2-hydroxypropanoyl)piperidin-4-yl)oxy)-5-(4-((5-methoxy-6-(4-(oxetan-3-yl)piperazin-1-yl)pyridin-3-yl)amino)-1,3,5-triazin-2-yl)benzonitrile]
≥ 1000 | C[C@H](O)C(=O)N1CC[C@H](Oc2ccc(-c3ncnc(Nc4ccc([C@@H]5C(=O)N(C)CCN5C)cc4)n3)cc2C#N)[C@H](F)C1 [Example 518, 5-(4-((4-((R)-1,4-dimethyl-3-oxopiperazin-2-yl)phenyl)amino)-1,3,5-triazin-2-yl)-2-(((3R,4S)-3-fluoro-1-((S)-2-hydroxypropanoyl)piperidin-4-yl)oxy)benzonitrile]
289 | N#Cc1cc(-c2ncnc(Nc3ccc(N4CCN(C5COC5)CC4)cc3)n2)ccc1O[C@H]1CCN(C(=O)[C@@H]2CSC(=O)N2)C[C@H]1F [Example 530, 2-(((3R,4S)-3-fluoro-1-((R)-2-oxothiazolidine-4-carbonyl)piperidin-4-yl)oxy)-5-(4-((4-(4-(oxetan-3-yl)piperazin-1-yl)phenyl)amino)-1,3,5-triazin-2-yl)benzonitrile]
26 | COc1cc(Nc2ncnc(-c3ccc(O[C@H]4CCN(C(=O)CC#N)C[C@H]4F)c(C#N)c3)n2)ccc1N1CCN(C2COC2)CC1 [Example 558, 2-(((3R,4S)-1-(2-cyanoacetyl)-3-fluoropiperidin-4-yl)oxy)-5-(4-((3-methoxy-4-(4-(oxetan-3-yl)piperazin-1-yl)phenyl)amino)-1,3,5-triazin-2-yl)benzonitrile]
70 | COc1cc(Nc2ncnc(-c3ccc(O[C@H]4CCN(C(=O)[C@@H](O)CO)C[C@H]4F)c(C#N)c3)n2)ccc1N1CCN(C2COC2)CC1 [Example 578, 2-(((3R,4S)-1-((S)-2,3-dihydroxypropanoyl)-3-fluoropiperidin-4-yl)oxy)-5-(4-((3-methoxy-4-(4-(oxetan-3-yl)piperazin-1-yl)phenyl)amino)-1,3,5-triazin-2-yl)benzonitrile]

Compound | IC50 [nM]
Cc1cc(Nc2ncnc(-c3ccc(O[C@H]4CCN(C(=O)[C@@H](O)CO)C[C@H]4F)c(C#N)c3)n2)ccc1N1CCN(C2COC2)CC1 [Example 575, 2-(((3R,4S)-1-((S)-2,3-dihydroxypropanoyl)-3-fluoropiperidin-4-yl)oxy)-5-(4-((3-methyl-4-(4-(oxetan-3-yl)piperazin-1-yl)phenyl)amino)-1,3,5-triazin-2-yl)benzonitrile] | 62
Cc1cc(Nc2ncnc(-c3ccc(O[C@H]4CCN(C(=O)[C@H](O)CO)C[C@H]4F)c(C#N)c3)n2)ccc1N1CCN(C2COC2)CC1 [Example 576, 2-(((3R,4S)-1-((R)-2,3-dihydroxypropanoyl)-3-fluoropiperidin-4-yl)oxy)-5-(4-((3-methyl-4-(4-(oxetan-3-yl)piperazin-1-yl)phenyl)amino)-1,3,5-triazin-2-yl)benzonitrile] | 56
